Test results: the NIST ThermoML archive (doi:10.1016/j.jct.2011.10.023)

Conditions: Liquid, Vibrating tube method

CCO [ethanol]
mass density [kg/m3]
Conditions | 278.15 K | 288.15 K | 298.15 K | 308.15 K | 318.15 K | 328.15 K | 338.15 K | 348.15 K | 358.15 K
100 kPa | 801.9 | 793.4 | 784.8 | 776.1 | 767.4 | 758.4 | 749.1 | 739.5 | 729.5
1000 kPa | 802.7 | 794.2 | 785.6 | 777 | 768.3 | 759.4 | 750.2 | 740.7 | 730.7
5000 kPa | 805.9 | 797.6 | 789.3 | 780.9 | 772.4 | 763.7 | 754.8 | 745.6 | 736
10000 kPa | 809.9 | 801.8 | 793.6 | 785.4 | 777.2 | 768.8 | 760.1 | 751.3 | 742.1
15000 kPa | 813.6 | 805.8 | 797.7 | 789.7 | 781.7 | 773.6 | 765.2 | 756.6 | 747.7
20000 kPa | 817.2 | 809.5 | 801.7 | 793.9 | 786 | 778.1 | 769.9 | 761.6 | 753
25000 kPa | 820.6 | 813.1 | 805.3 | 797.8 | 790.1 | 782.4 | 774.4 | 766.4 | 758
30000 kPa | 824 | 816.6 | 809 | 801.5 | 794 | 786.5 | 778.7 | 770.8 | 762.8
35000 kPa | 827.2 | 819.9 | 812.5 | 805.2 | 797.8 | 790.4 | 782.8 | 775.1 | 767.2
40000 kPa | 830.3 | 823.1 | 815.9 | 808.7 | 801.4 | 794.2 | 786.7 | 779.2 | 771.5
45000 kPa | 833.3 | 826.3 | 819.2 | 812 | 804.9 | 797.8 | 790.5 | 783.1 | 775.6
50000 kPa | 836.3 | 829.3 | 822.3 | 815.3 | 808.3 | 801.3 | 794.1 | 786.9 | 779.5
55000 kPa | 839.1 | 832.3 | 825.4 | 818.5 | 811.6 | 804.7 | 797.7 | 790.5 | 783.3
60000 kPa | 841.8 | 835 | 828.1 | 821.4 | 814.6 | 807.8 | 800.8 | 793.8 | 786.7

CCCCCCCCCCO [decan-1-ol]
mass density [kg/m3]
Conditions | 288.15 K | 298.15 K | 308.15 K | 318.15 K | 328.15 K | 338.15 K | 348.15 K | 358.15 K
100 kPa | 832.3 | 825.5 | 818.7 | 811.9 | 805 | 798 | 790.9 | 783.6
1000 kPa | 832.8 | 826 | 819.3 | 812.5 | 805.7 | 798.7 | 791.6 | 784.3
5000 kPa | 835.2 | 828.5 | 821.9 | 815.3 | 808.5 | 801.7 | 794.8 | 787.6
10000 kPa | 838 | 831.5 | 825 | 818.5 | 811.9 | 805.2 | 798.5 | 791.6
15000 kPa | 840.8 | 834.4 | 828 | 821.7 | 815.2 | 808.7 | 802 | 795.3
20000 kPa | 843.5 | 837.2 | 830.9 | 824.7 | 818.3 | 812 | 805.5 | 798.9
25000 kPa | 846.1 | 839.8 | 833.7 | 827.6 | 821.4 | 815.1 | 808.8 | 802.3
30000 kPa | 848.6 | 842.5 | 836.4 | 830.4 | 824.3 | 818.1 | 811.9 | 805.6
35000 kPa | 851.1 | 845.1 | 839.1 | 833.2 | 827.1 | 821.1 | 815 | 808.8
40000 kPa | 853.5 | 847.6 | 841.7 | 835.8 | 829.9 | 824 | 817.9 | 811.9
45000 kPa | 855.9 | 850 | 844.2 | 838.5 | 832.6 | 826.7 | 820.8 | 814.8
50000 kPa | 858.2 | 852.4 | 846.6 | 841 | 835.2 | 829.4 | 823.6 | 817.7
55000 kPa | 860.4 | 854.7 | 849 | 843.4 | 837.7 | 832.1 | 826.4 | 820.5
60000 kPa | 862.7 | 856.8 | 851.2 | 845.7 | 840.2 | 834.5 | 829 | 822.9
